Results published in patent US20110275807A1, “Application of Evodiamine in preparing medicaments for Alzheimer's disease” (Institute of Laboratory Animal Science, Chinese Academy of …, priority 2010, published 2011).

What was measured:
Type in all cases: in vivo
[1] = test system: IL-Iβ; test: ELISA of IL-Iβ in brain tissues of Alzheimer's disease model mice; conditions: 100 mg/kg body weight/day in diet for 3 months, compared with the model group
Description: (§1) The evodiamine treatment group was administrated in the standard diet plus evodiamine in a dose of 100 mg/kg body weight/day for 3 months. The model group received a standard diet as the placebo control.

[2] = test system: APPswe/PSΔE9 transgenic model of Alzheimer's disease; test: Morris water-maze test in Alzheimer's disease mice model; conditions: 100 mg/kg body weight/day in diet for 3 months; compared with the model group
Description: The evodiamine treatment group was administrated in the standard diet plus evodiamine in a dose of 100 mg/kg body weight/day for 3 months. The model group received a standard diet as the placebo control. After a three-month continuous administration, the Morris water-maze tests were performed to test the effect of evodiamine on improvement of learning and memory abilities of the Alzheimer's disease mice model.

[3] = test system: TNF-α; test: ELISA of TNF-α in brain tissues of Alzheimer's disease model mice; conditions: 100 mg/kg body weight/day in diet for 3 months, compared with the model group
Description: as §1

[4] = test system: IL-6; test: ELISA of IL-6 in brain tissues of Alzheimer's disease model mice; conditions: 100 mg/kg body weight/day in diet for 3 months, compared with the model group
Description: as §1

[5] = test system: cyclaoxygenase-2 (COX-2); test: Western Blotting of COX-2 expression in brain tissue of Alzheimer's disease model mice; conditions: 100 mg/kg body weight/day in diet for 3 months, compared with the model group
Description: as §1, with “control. […] The inflammation is one of main reasons resulting in the pathological development of Alzheimer's disease, so Evodiamine can treat Alzheimer's disease.” for “control.”

Evodiamine
IL-Iβ in the brain tissues [1]: significantly decreased
learning and memory abilities (Morris water-maze) [2]: significantly improved
TNF-α in the brain tissues [3]: significantly decreased
IL-6 in the brain tissues [4]: significantly decreased
expression of the cyclaoxygenase-2 (COX-2) in the brain tissue [5]: reduced
